In patent US20090221989A1, “SYSTEM AND METHOD FOR THE PREVENTION AND TREATMENT OF BACTERIAL AND FUNGAL INFECTIONS INCLUDING URINARY TRACT INFECTIONS (UTI) USING A HYPOHALOUS ACID COMPOSITION” (Novabay Pharmaceuticals Inc, priority 2005, published 2009):

How the values were obtained:
[1] = tested on: viable (culturable) bacteria on patient catheter; test: Ex-vivo treatment of a patient Foley catheter, viable plate counts; format: cell-based
Source text: A Foley catheter was removed from a patient by hospital personnel and placed in a sterile bag. In the Bozeman Deaconess Hospital (BDH) lab, the outside of the catheter was wiped down with 70% ethanol. Then the catheter was aseptically cut into 3 catheter portions (bag-end, middle and patient-end). Each portion was cut into 3.0 cm long sections using a ruler and razor blades.
Three of the sections (one bag-end, one middle and one patient-end) designated as control were placed into sterile PBS. Three of the sections (one bag-end, one middle and one patient-end) were placed in 20 mM HOCl. All catheter sections were treated for 30 minutes individually in sterile glass tubes, each with sufficient solution to be immersed completely. After treatment, each 3 cm section was removed from the treatment tubes and the PBS control tubes and placed into a second glass tube containing sterile PBS for a 2 minute rinse in order to remove the treatment solution. The section was then removed from the tube and aseptically cut into 1.0 cm and 2.0 cm pieces. The 2.0 cm piece was placed in a tube containing 10 ml of sterile PBS, vortexed, sonicated and diluted for viable plate counts. The number of viable (culturable) bacteria was enumerated by serial dilution in PBS and plate counts using the spread-plate technique. Samples were plated on blood agar plates. Results will be expressed as colony-forming units/cm^2, CFU/cm^2 (calculated as 2.0 cm length×0.25 cm (radius)×3.14 (pi)=1.57 cm^2). The 1.0 cm piece was placed in 4% formaldehyde solution.

[2] = tested on: Proteus mirabilis ATCC 29245 biofilm; test: Biofilm disinfection on 1-cm Foley catheter pieces, plate count; format: cell-based; conditions: HOCl 2 mM in 0.9% saline pH 3.5, 48 h biofilm
Protocol: (§1) We have devised a dynamic in vitro model using traditional microbiological methods to assess the antimicrobial efficacy of 2 mM HOCl in 0.9% saline at pH 3.5, as compared to physiological saline in disinfecting intra-luminal and extra-luminal indwelling Foley catheter.
(§2) Foley Catheter, manufactured by BARD HOCl (2 mM) in 0.9% saline pH 3.5 (150 mM) Escherichia coli ATCC 25922 Proteus mirabilis ATCC 29245
(§3) Neutralizer Broth: A broth containing dextrose, lecithin, sodium thiosulfate, pancreatic digest of casein, Tween® 80, yeast extract, sodium bisulfate, sodium thioglycollate, monopotassium phosphate, and bromcresol purple.
(§4) The ability of HOCl to destroy biofilm formation was evaluated as follows. First, biofilm was established on 1-cm-long pieces of catheter for 48 hours in nutrient broth in the presence of either Proteus mirabilis or Escherichia coli. Subsequently, the biofilm-bearing pieces of catheter were exposed to 2 mM HOCl in 0.9% saline at pH 3.5 over various periods of time. After the exposures the pieces of catheter were transferred into 1 mL of neutralizer broth to stop the reaction. 0.1 mL (10%) of the neutralizer broth was then plated out onto nutrient agar and the number of colonies was counted. The CFU (Colony Forming Unit) values obtained were multiplied by 10 to obtain the actual CFU/mL values per treated sample.

[3] = tested on: Escherichia coli ATCC 25922 biofilm; test: as above; format: cell-based; conditions: HOCl 2 mM in 0.9% saline pH 3.5, 48 h biofilm
Protocol: as §1, §2, §3, §4

[4] = tested on: urease positive Escherichia coli ATCC 25922 biofilm; test: Biofilm eradication in in vitro urinary catheter flow model; format: cell-based; conditions: for Log (CFU/cm2) / Log reduction: pH 4, 0.9% NaCl; for Log (CFU/cm2): 3-day biofilm, 10 min flow + 30 min stationary, average of 9 treatments; for Log reduction: versus saline
Protocol: A test system was established which utilized size 14 Foley catheters (supplied by NovaCal), which were cut and installed into a pre-sterilized flow system (FIG. 1) using aseptic techniques. The system consists of five parallel channels, one channel per catheter. Sterile medium was supplied to the system via a flow-break, to prevent back-growth into the medium reservoir. The entire system was placed in a 37° C. incubator. After conditioning the system with artificial urine medium for 30 minutes, 2.0 ml inoculum from an overnight culture of urease positive Escherichia coli ATCC 25922 grown in artificial urine medium at 37° C. was introduced into the system via the valve closest to the flow break (bladder side of catheter). Each inoculum was tested to confirm urease production. After inoculation, the system remained under static conditions (no flow) for two hours, to allow for bacterial attachment to the catheters. Flow of artificial urine medium was then initiated and maintained at a rate of 0.75 ml/min for 3 days. Initial experiments were conducted to evaluate consistency of biofilm formation in the model system. […] Day 5 and Day 7 counts remained at approximately that level. It was decided that treatment would be performed on Day 3 to prevent the possibility of biofilm detachment occurring. […] Sterile sections of tubing were attached from the syringe to the valve furthest from the flow break (bag end of the catheter). This end is designated as FRONT for sampling purposes. The pump was turned on and the treatments were introduced at 2.0 ml/min for 10 minutes through the catheters. Excess medium and treatment solution was captured in a waste container. After 10 minutes, the syringe pump was turned off and the solutions were left stationary in the catheters for 30 minutes. The solutions were then withdrawn back through the catheter into the syringe, medium flow was resumed for a 30 minute rinse time and the catheters were then sampled. For efficient sampling: Each catheter was divided into 3 segments (front, middle, end) and each segment was subsampled. One subsample was used to determine bacterial populations by plate count, another subsample was analyzed by staining with the LIVE/DEAD® BaclightTM bacterial viability kit ([…], Molecular Probes, Oregon, USA) using confocal laser microscopy (CSLM), the third sample was imaged using scanning electron microscopy (SEM). For viable cell counts, a 3.0 centimeter section of tubing was removed and scraped with a sterile stainless steel rod (using aseptic technique) into a tube containing 10.0 ml of sterile phosphate-buffered saline (PBS). The tubes were then sonicated for two minutes and the suspension was vortexed for one minute. The number of viable (culturable) bacteria was enumerated by serial dilution in PBS and plate counts using the spread-plate technique. Results were expressed as CFU/cm^2 and are calculated as follows: The surface area of the internal lumen of the catheter section scraped was determined to be 2.826 cm^2. Three treatment runs were performed on 3 catheters each. One treated with PBS or sterile 0.9% saline as control, one treated with 2 mM HOCl and one treated with 20 mM HOCl. The Log (CFU/cm^2) was calculated from the average of 9 treatments, consisting of 3 treatments of 3 catheter pieces for each Test Article.

[5] = tested on: E. coli and Pr. mirabilis biofilm; test: Biofilm disinfection on Foley catheter pieces, both organisms pooled: re-culture OD600, overall CFU, visual examination; format: cell-based, Escherichia coli; Proteus mirabilis; conditions: HOCl 2 mM in 0.9% saline pH 3.5
Protocol: as §4, with “sample. In order to measure the amount of live bacteria left on the pieces of catheter following treatment, the biofilm-bearing pieces of catheter were transferred into tubes containing fresh growth medium. After allowing growth in a shaker at 37° C. for 4 hours, Optical Density (OD) was read at 600 nm. […] This was also shown by very low optical density readings (average of 0.057 OD600 units, individual data not listed) following the attempt to re-culture the bacteria from treated catheters.” for “sample.”

[6] = tested on: urease positive Escherichia coli ATCC 25922 biofilm; test: Biofilm prevention in in vitro urinary catheter flow model; format: cell-based
Protocol: Day 0: The test system, as described in detail above, utilized size 14 Foley catheters, cut and installed into a pre-sterilized flow system using aseptic techniques. Sterile medium was supplied to the system via a flow-break, to prevent back-growth into the medium reservoir. The entire system was placed into a 37 AC incubator. After conditioning the system with artificial urine medium for 30 minutes, each catheter was treated with a disinfectant. 20.0 ml of each treatment solution was loaded into 30 ml syringes and connected to a syringe pump. Sterile sections of tubing were attached from the syringe to the valve furthest from the flow break (bag end of the catheter). This end is designated as FRONT for sampling purposes. The pump was turned on and the treatments were introduced at 2.0 ml/min for 10 minutes through the catheters. Excess medium and treatment solution was captured in a waste container. After 10 minutes, the syringe pump was turned off and the solutions were left stationary in the catheters for 30 minutes. The solutions were then withdrawn back through the catheter into the syringe. The catheters were then rinsed with sterile medium for 30 minutes. On Day 0 only: An inoculum from an overnight culture of urease positive Escherichia coli ATCC 25922 grown in artificial urine medium at 37° C. was introduced into the system via the valve closest to the flow break (bladder side of catheter). Each inoculum was tested for confirmation of urease production. After inoculation, the system remained under static conditions (no flow) for two hours, to allow for bacterial attachment to the catheters. Flow of artificial urine medium was then initiated and maintained at a rate of 0.75 ml/min. Days 1, 3 and 5: For viable cell counts, a 3.0 centimeter section of tubing was removed and scraped with a sterile stainless steel rod (using aseptic technique) into a tube containing 10.0 ml of sterile PBS. The tubes were then sonicated for two minutes and the suspension was vortexed for one minute. The number of viable (culturable) bacteria was enumerated by serial dilution in PBS and plate counts using the spread-plate technique. Results are expressed as CFU/cm^2 and were calculated as described in Phase One. Days 1 and 3: After sampling, the catheters were disinfected and rinsed with sterile medium as described above. Days 2 and 4: the catheters were disinfected and rinsed with sterile medium as described above. No samples were taken. Day 5: Samples were taken for imaging and both ends of the catheter were sampled for viable cell count data.

[7] = HOCl 20 mM, pH 4, 0.9% NaCl, 30 minutes immersion

OCl [HOCl, hypochlorous acid]
Log reduction ([1]; HOCl 20 mM versus sterile PBS, average of 3 pieces): 2.4 | Average Log CFU/cm^2 on catheter section after treatment, Bag end [1, 7]: 0.50 Log CFU/cm^2 | Average Log CFU/cm^2 on catheter section after treatment, average 3 pieces [1, 7]: 0.53 Log CFU/cm^2 | Average Log CFU/cm^2 on catheter section after treatment, middle [1, 7]: 0.58 Log CFU/cm^2 | Average Log CFU/cm^2 on catheter section after treatment, patient end [1, 7]: 0.50 Log CFU/cm^2 | CFU/mL ([2]; exposure 5 min): 110 CFU/mL | CFU/mL ([2]; exposure 10 min): 40 CFU/mL | CFU/mL ([2]; exposure 20 min): 50 CFU/mL | CFU/mL ([2]; exposure 30 min): 0 CFU/mL | CFU/mL ([2]; exposure 45 min): 20 CFU/mL | CFU/mL ([2]; exposure 60 min): 0 CFU/mL | CFU/mL ([2]; exposure 120 min): 90 CFU/mL | CFU/mL ([2]; exposure <1 min): >>3000 CFU/mL | CFU/mL ([3]; exposure 5 min): 460 CFU/mL | CFU/mL ([3]; exposure 10 min): 0 CFU/mL | CFU/mL ([3]; exposure 20 min): 0 CFU/mL | CFU/mL ([3]; exposure 30 min): 0 CFU/mL | CFU/mL ([3]; exposure 45 min): 0 CFU/mL | CFU/mL ([3]; exposure 60 min): 0 CFU/mL | CFU/mL ([3]; exposure 120 min): 0 CFU/mL | CFU/mL ([3]; exposure <1 min): 50 CFU/mL | Log (CFU/cm2) ([4]; HOCl 2 mM): 4.8 Log (CFU/cm2) | Log reduction ([4]; HOCl 2 mM): −4.3 | bacterial removal, higher versus lower concentration ([4]; HOCl 20 mM versus 2 mM): significantly more bacterial removal than the lower concentration | Log (CFU/cm2) ([4]; HOCl 20 mM): 2.5 Log (CFU/cm2) | Log reduction ([4]; HOCl 20 mM): −6.6 | bacterial counts and presence of biofilm (visual interpretation from images) ([4]; HOCl at 2 mM and 20 mM): significantly reduced bacterial counts and the presence of biofilm | visual examination of biofilm on catheter surface [5]: subsequent removal | optical density readings after re-culture of treated catheters (average) ([5]; 4 h growth at 37° C. in fresh medium, average, individual data not listed): 0.057 OD600 units | recoverable CFU/mL bacteria ([5]; catheters infected 48 hours): minimal recoverable CFU/mL bacteria | inhibition of biofilm formation ([6]; 5 day duration, 20 mM): appeared to inhibit biofilm formation | viable cell count Day 1 ([6]; Day 1, daily treatment, HOCl 20 mM pH 4 0.9% NaCl, vinegar 1:3 in water, Neomycin 1 ml in 1000 ml saline): 3.5 CFU/cm^2 | viable cell count Day 3 ([6]; Day 3, daily treatment, HOCl 20 mM pH 4 0.9% NaCl, vinegar 1:3 in water, Neomycin 1 ml in 1000 ml saline): 0.0 CFU/cm^2 | viable cell count Day 5 “Front” (bag end) ([6]; Day 5, bag end, daily treatment, HOCl 20 mM pH 4 0.9% NaCl, vinegar 1:3 in water, Neomycin 1 ml in 1000 ml saline): 0.0 CFU/cm^2 | viable cell count Day 5 “End” (bladder end) ([6]; Day 5, bladder end, daily treatment, HOCl 20 mM pH 4 0.9% NaCl, vinegar 1:3 in water, Neomycin 1 ml in 1000 ml saline): 0.0 CFU/cm^2 | inhibition of biofilm formation compared to vinegar and Neosporin ([6]; especially by Day 5, 20 mM): significantly better at inhibiting biofilm formation
